Results taken from patent US20170157251A1, “Bi-Specific Monovalent Diabodies That are Capable of Binding CD19 and CD3, and Uses Thereof” (MacroGenics, Inc., priority 2015, published 2017).

Legend:
[1] = system: CFSE-labeled human T cells; experiment: Proliferation of CFSE-labeled human T cells co-cultured with HBL-2 target cells; type: cell-based; settings: 200 ng/mL, E:T 10:1, 72 hours
Experimental: The expansion of T cells during effector:target cell co-engagement by […] was also evaluated, given that proliferation concomitant with T cell activation has been previously reported. […] Proliferation of CFSE-labeled T cells was monitored by levels of CFSE dilution over time by FACS analysis (FIGS. 16A-16B).

[2] = system: CLL malignant B cells (CD20+/CD5+); experiment: Autologous depletion of malignant B cells in CLL primary patient PBMCs; type: cell-based, human
Experimental: Due to the limited patient sample availability, only 2 concentrations (50 ng/mL and 200 ng/mL) were tested. The percentages of CLL malignant B cells (CD19+/CD5+ or CD20+/CD5+) and T cells (CD19−/CD5+ or CD4+ and CD8+) were measured by flow cytometry prior to treatment and following treatment for 3 and 6 days.

[3] = system: cynomolgus monkey CD4+ and CD8+ T cells; experiment: Cynomolgus monkey T cell activation (CD25, CD69) during redirected killing of Raji/GF cells; type: cell-based; settings: Raji/GF target cells
Excerpt: (§1) The effect on T cells during DART-A-mediated redirected target cell (Raji/GF cells) lysis was characterized by evaluating expression of the T cell activation markers CD69 and CD25.

HBL-2 tumor cells [4] = experiment: Established HBL-2 xenograft model with human PBMCs; type: in vivo, NSG B2m−/− mice
Excerpt: Mice were implanted with HBL-2 tumor cells (5×10^6 cells) intradermally (ID) on Day 0 followed by intraperitoneal (IP) injection of PBMCs (5×10^7 cells) on Day 4.
However, prior to the third (Study Day 24) and fourth (Study Day 28) doses, the tumor volumes were 1469±162 and 848±74 mm^3, respectively, representing a 36% and 63%, respectively, decrease in tumor volume with respect to the peak volume recorded on Study Day 21 (FIG. 19B). The tumors continued to decrease in size to the extent that on Day 42, the average tumor volume was 248±52 mm^3, an 89% decrease in the tumor volume (FIG. 19B).

HBL-2 tumor cells [5] = experiment: HBL-2 co-mix xenograft with activated human T cells; type: in vivo, NOD/SCID mice; settings: by Day 13
Excerpt: (§2) In both studies, human T cells and tumor cells (HBL-2 or Raji) were combined at a ratio of 1:5 (1×10^6 and 5×10^6 cells, respectively) and injected SC into mice on Day 0.

[6] = system: human CD8+ and CD4+ T cells; experiment: Intracellular granzyme B and perforin in T cells in CTL assay; type: cell-based; settings: 24 hours, Raji/GF target cells, E:T 10:1
Excerpt: Of note, the upregulation of granzyme B (FIG. 15A) and perforin (FIG. 15B) was higher in CD8+ T cells compared with CD4+ T cells, consistent with the expected higher CTL potency of CD8+ T cells.

Raji tumor cells = experiment: Raji co-mix xenograft with activated human T cells; type: in vivo, NOD/SCID mice; settings: end of the study (Day 28)
Excerpt: as §2

[7] = system: human T cells with JIMT-1 cells; experiment: Human T cell activation in the presence of CD19-negative JIMT-1 cells; type: cell-based
Raji.luc cells = experiment: Disseminated Raji.luc model in human PBMC-reconstituted mice, established tumor; settings: treatment from Study Day 15, 9 doses; DART-A 0.16 μg/kg to 0.5 mg/kg, Control DART 1 0.1 mg/kg
human T cells = experiment: Cytokine release by human T cells in the presence of Raji/GF target cells (ELISA); type: cell-based; settings: co-incubation with Raji/GF target cells
[8] = Human FcRn transgenic mouse pharmacokinetic study; type: in vivo; settings: human FcRn transgenic mice
Experimental: Three human mAbs were also evaluated in same test system for comparison and had terminal half-lives ranging from 58.7 to 102.7 hours.

CD20+ B cells [9] = experiment: Autologous B cell depletion in cynomolgus monkey PBMCs; type: cell-based
Excerpt: (§3) Potential differences in CD19 expression levels between human and cynomolgus monkey B cells may be another variable factor contributing to the apparent difference in potency.

[10] = system: human CD4+ and CD8+ T cells; experiment: Human T cell activation (CD25, CD69) during redirected killing of Raji/GF cells; type: cell-based; settings: Raji/GF target cells
Excerpt: as §1

Raji.luc lymphoma cells = experiment: Disseminated Raji.luc model in human PBMC-reconstituted mice, early treatment; settings: 12 doses
Raji/GF cells = experiment: Redirected killing of target tumor cells using human T cells, Raji/GF; type: cell-based; settings: HBL-2, Raji/GF, Jeko-1; E:T 10:1
CD20+ B cells [11] = experiment: Autologous B cell depletion in human PBMCs; type: cell-based
Excerpt: as §3

Control DART 1: control DART capable of binding to fluorescein and CD3 [reference compound]
cells proliferating (CFSE dilution) [1]: no proliferation of CFSE-labeled T cells was observed
CD4+ ([2]; Day 3, 50 ng/mL): 3.08%
CD8+ ([2]; Day 3, 50 ng/mL): 1.81%
CD20+/CD5+ ([2]; Day 3, 50 ng/mL, E:T = 1:23): 73.5%
CD4+ ([2]; Day 3, 200 ng/mL): 3.23%
CD8+ ([2]; Day 3, 200 ng/mL): 1.62%
CD20+/CD5+ ([2]; Day 3, 200 ng/mL): 72.9%
CD4+ ([2]; Day 6, 50 ng/mL): 3.54%
CD8+ ([2]; Day 6, 50 ng/mL): 2.26%
CD20+/CD5+ ([2]; Day 6, 50 ng/mL): 74.9%
CD25+/CD4+ ([2]; Day 6, 50 ng/mL): 1.4%
CD25+/CD8+ ([2]; Day 6, 50 ng/mL): 20.6%
CD4+ ([2]; Day 6, 200 ng/mL): 2.79%
CD8+ ([2]; Day 6, 200 ng/mL): 1.82%
CD20+/CD5+ ([2]; Day 6, 200 ng/mL): 73.4%
CD25+/CD4+ ([2]; Day 6, 200 ng/mL): 1.4%
CD25+/CD8+ ([2]; Day 6, 200 ng/mL): 14.3%
B cell killing or upregulation of CD25 ([2]; through Day 6): no B cell killing or upregulation of CD25 was observed
T cell activation markers CD25 and CD69 [3]: did not mediate induction of T cell activation markers
average tumor volume (HBL-2 tumor cells [4]; Day 21 (2nd dose), treatment from Day 17, DART-A 0.5 mg/kg IV): 1185.6±138.7 mm^3
average tumor volume (HBL-2 tumor cells [4]; Day 24 (3rd dose), treatment from Day 17): 2623.7±351.5 mm^3
average tumor volume (HBL-2 tumor cells [5]): approximately 1000 mm^3
granzyme B and perforin levels in CD8+ and CD4+ T cells [6]: no upregulation of granzyme B or perforin was observed
average tumor volume (Raji tumor cells): 2968.2±200.0 mm3
T cell activation [7]: fail to mediate human T cell activation
tumor burden / tumor progression, dose-range finding (Raji.luc cells): slight delay of tumor progression
cytokine production (human T cells): did not result in any detectable cytokine production
terminal half-life [8]: 92.1 h
CD20+ B cell depletion (CD20+ B cells [9]): no B cell depletion was observed
T cell activation markers CD25 and CD69 [10]: did not mediate induction of T cell activation markers
efficacy in dose-range finding study (Raji.luc lymphoma cells; 0.16 μg/kg to 0.5 mg/kg): rapid progression of Raji.luc tumor growth
Study Day by which all mice died or were humanely sacrificed (Raji.luc lymphoma cells; 0.5 mg/kg IV): ≤ 53 Study Day
T cell redirected killing of target cells (Raji/GF cells): did not mediate T cell redirected killing of target cells
CD20+ B cell depletion (CD20+ B cells [11]): no B cell depletion was observed
